The results in this text go back to US11945799B2, “4-ethynylpyridine derivatives useful as GCN2 inhibitors” (IP2IPO INNOVATIONS LIMITED, priority 2020, dated 2024).

One may read the IC50 as the concentration that inhibits the measured activity by half. Broadly, the Ki is a measure of affinity in units of concentration, obtained from inhibition or displacement. Broadly, the kinetic solubility is the concentration staying in solution when a stock, usually in DMSO, is diluted into the medium.

Like-named read-outs stand apart in the source and are kept apart here. Where only a bound is given, the exact number is not on record here.

In data set [1] the target is T1, full-length human GCN2 enzyme (Homo sapiens, UniProt Q9P2K8).
T1 construct: purchased Carna Bioscience
T1 sequence (Q9P2K8 whole entry): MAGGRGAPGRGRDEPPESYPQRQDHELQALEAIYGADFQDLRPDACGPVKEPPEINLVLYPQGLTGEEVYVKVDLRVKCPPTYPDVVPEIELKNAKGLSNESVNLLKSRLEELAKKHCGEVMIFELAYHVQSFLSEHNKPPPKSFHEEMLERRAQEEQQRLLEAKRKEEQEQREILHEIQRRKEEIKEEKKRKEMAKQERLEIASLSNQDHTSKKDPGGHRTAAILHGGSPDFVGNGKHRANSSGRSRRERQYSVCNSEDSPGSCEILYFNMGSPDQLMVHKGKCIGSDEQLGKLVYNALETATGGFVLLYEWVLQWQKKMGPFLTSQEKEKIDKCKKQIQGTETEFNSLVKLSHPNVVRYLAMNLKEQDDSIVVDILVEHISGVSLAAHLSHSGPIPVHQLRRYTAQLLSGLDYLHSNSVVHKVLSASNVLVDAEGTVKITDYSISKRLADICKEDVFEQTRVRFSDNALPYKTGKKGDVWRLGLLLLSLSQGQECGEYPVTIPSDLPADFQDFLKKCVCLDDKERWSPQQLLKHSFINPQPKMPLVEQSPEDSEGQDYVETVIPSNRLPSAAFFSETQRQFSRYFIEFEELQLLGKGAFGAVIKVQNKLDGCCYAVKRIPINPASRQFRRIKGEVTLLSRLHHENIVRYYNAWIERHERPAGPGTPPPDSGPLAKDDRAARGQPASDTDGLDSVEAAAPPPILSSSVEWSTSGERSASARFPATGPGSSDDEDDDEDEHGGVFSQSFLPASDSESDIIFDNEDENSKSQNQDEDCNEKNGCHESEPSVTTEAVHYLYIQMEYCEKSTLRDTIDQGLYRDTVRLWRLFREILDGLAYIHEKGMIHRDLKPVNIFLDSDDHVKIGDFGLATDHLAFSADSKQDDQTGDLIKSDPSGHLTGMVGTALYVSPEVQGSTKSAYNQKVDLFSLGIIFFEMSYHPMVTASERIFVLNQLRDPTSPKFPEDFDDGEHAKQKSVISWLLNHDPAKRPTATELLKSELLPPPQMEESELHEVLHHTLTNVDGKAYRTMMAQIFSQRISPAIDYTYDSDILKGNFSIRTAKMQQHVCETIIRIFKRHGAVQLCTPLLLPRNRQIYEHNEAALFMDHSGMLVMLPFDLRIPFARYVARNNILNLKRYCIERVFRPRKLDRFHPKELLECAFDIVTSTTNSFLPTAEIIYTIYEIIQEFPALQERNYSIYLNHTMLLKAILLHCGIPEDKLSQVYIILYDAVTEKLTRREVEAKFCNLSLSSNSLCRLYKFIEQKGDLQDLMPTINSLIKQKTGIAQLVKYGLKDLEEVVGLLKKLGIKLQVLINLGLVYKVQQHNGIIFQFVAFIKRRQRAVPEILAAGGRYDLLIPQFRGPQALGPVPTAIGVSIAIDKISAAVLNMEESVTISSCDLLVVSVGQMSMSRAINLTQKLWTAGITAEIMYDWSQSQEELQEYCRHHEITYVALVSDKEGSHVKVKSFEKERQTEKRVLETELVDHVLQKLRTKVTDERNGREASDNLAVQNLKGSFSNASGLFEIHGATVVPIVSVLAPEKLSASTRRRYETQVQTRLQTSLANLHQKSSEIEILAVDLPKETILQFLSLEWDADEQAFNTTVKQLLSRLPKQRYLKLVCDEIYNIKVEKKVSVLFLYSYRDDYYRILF
The experiment in a line: GCN2 enzyme inhibition, LanthaScreen TR-FRET Kinase Activity assay (10 μM and 300 μM ATP). In kind it is biochemical. The conditions noted are these: mean of replicate assays. On the procedure: Biological and Pharmacokinetic Testing (a) GCN2 Enzyme Inhibition (10 μM and 300 μM Assays) Assay Protocol Overview:
The inhibitory activity of the Example compounds towards GCN2 enzyme was measured according to the description below, using a LanthaScreen TR-FRET (Time Resolved Fluorescence Resonance Energy Transfer) Kinase Activity assay distributed by ThermoFisher Scientific.
The full-length human GCN2 enzyme (UniProt accession number Q9P2K8) was used for all experiments (Carna Bioscience). The TR-FRET pair was composed of GFP-eIF2α and LanthaScreen Terbium-labeled anti-peIF2α (pSer52) Antibody.
Each example compound was dissolved in DMSO (0.15 mM) and dispensed in a 384-well plate by a D300 dispenser (Tecan) to a final concentration range 3000-0.13 nM using the logarithmic dilution mode in 2 replicates. Full inhibition (3000 nM commercial reference inhibitor) and DMSO vehicle control wells were also included on the same plate. All volumes were normalized to the final DMSO concentration of 2% of the reaction volume. Next, 5 μL of H2O was added to each well of the plate.
The enzyme mixture was prepared to obtain the following concentrations: • GCN2—30 nM • unloaded tRNA—0.3 nM • HEPES (pH=7.0)—100 mM • MgCl2—20 mM; MnCl2—10 mM
The mixture was applied by adding 5 μL to each well of the plate. The enzyme and the tested compound were then incubated at room temperature for 20 min while shaking at 450 rpm.
The substrate mixture was prepared to obtain the following concentrations: • GFP-eIF2α—240 nM • ATP—900 μM or 30 μM • HEPES (pH=7.0)—50 mM • MgCl2—10 mM • MnCl2—5 mM.
The mixture was applied by adding 5 μL to each well of the plate. Thus, the final concentrations of the 15 μL reaction mixture were as follows: • GCN2—10 nM • unloaded tRNA—0.1 nM • GFP-eIF2α—80 nM • ATP—300 μM or 10 μM • HEPES (1 M, pH=7.0)—50 mM • MgCl2—10 mM • MnCl2—5 mM.
The reaction was allowed to proceed at room temperature for 30 min while shaking at 450 rpm.
The antibody mixture was prepared to obtain the following concentrations: • Na2EDTA·2H2O—40 mM, in TR-FRET Dilution Buffer (Life technologies) • Tb—anti-peIF2a antibodies—4 nM.
The mixture was applied by adding 15 μL to each well. The plate was then incubated at room temperature for 60 min while shaking at 450 rpm and then read using Tecan Spark reader using specific TR-FRET filters.
The analysis of the GFP/Tb fluorescence results was conducted with GraphPad Prism to determine IC50 for each of the example compounds using 4-parameter model: log(inhibitor) vs. response-variable slope. IC50 and K, values were calculated in the usual way. The assay was carried out between 1 and 15 times. The results in the table below are the mean results from replicate assays for the compound in question, where applicable.
In general terms: TR-FRET usually uses a lanthanide donor and a delayed reading to cut background.

The nature of data set [2]: Kinetic solubility in PBS buffer pH 7.4. The conditions noted are these: aqueous buffer, kinetic from dmso stock; PBS buffer pH 7.4, 90 minutes at room temperature, from 10 mM DMSO stock. In kind it is physicochemical. On the procedure:
The kinetic solubility assay investigates a solubility based on the amount of material which remains in solution after a precipitation process. […] Assay is performed using Multiscreen Vacuum Manifold. A buffer of interest (in standard protocol PBS buffer at pH=7.4 is used) is spiked with stock solution and incubated for 90 minutes at room temperature. After that time solution/suspension is filtrated. The concentration of each compound is determined on the base of prepared calibration curve using UV-VIS spectrophotometry method. The assay is made in triplicate.
Buffer of interest: 0.24 g of KH2PO4, 1.44 g of Na2HPO4, 0.2 g of KCl and 8 g NaCl and dissolve in 1 L distilled H2O; adjust pH to appropriate value (pH 7.4). 190 μl of buffer of interest was dispensed into the wells of a 96 well filter plate, followed by 10 μl of compound (10 mM stock solution in DMSO). The plate was shaken gently at room temperature for 90 minutes at 500 rpm using a BioSan, Plate Shaker-Thermostat, PST-60 HL-4. After 90 minutes, the plate was filtered using a vacuum manifold and vacuum pump. 100 μl of each filtrate and 100 μl acetonitrile was transferred to a 96 well UV-visible light transparent plate and the UV-visible absorption spectrum was measured using a Biotek Synergy 2 multiplate reader from 250-500 nm, interval range 10 nm. The amount of test compound was calculated using a calibration curve prepared by serial dilution of compounds in equivalent amounts of DMSO and acetonitrile.

The mark [3] stands for this setting: read-out: GCN2 IC50 (nM) 10 uM ATP, 10 uM ATP.
Setting [4] is: read-out: GCN2 IC50 (nM) 300 uM ATP, 300 uM ATP.
Where [5] appears, read: read-out: GCN2 Ki (nM) 10 uM ATP, 10 uM ATP.
Setting [6] is: read-out: GCN2 Ki (nM) 300 uM ATP, 300 uM ATP.

On to `COc1ncc(Cl)cc1S(=O)(=O)Nc1nccc(C#Cc2cncc3ncn(C)c23)c1F` [Example 18, 5-chloro-N-[3-fluoro-4-(2-{1-methyl-1H-imidazo[4,5-c]pyridin-7-yl}ethynyl)pyridin-2-yl]-2-methoxypyridine-3-sulfonamide], for which the half-inhibitory concentration (IC50) in data set [1] (setting [3]) stood at 11.3 nM; in data set [1] (setting [4]), 365 nM. The Ki was 3.6 nM in data set [1] (setting [5]) and 5.6 nM in data set [1] (setting [6]). Moreover, the solubility (kinetic) at 90 min in data set [2] came out at 24.3 µg/mL.
The corresponding values for `COc1ncc(Cl)cc1S(=O)(=O)Nc1nccc(C#Cc2cncc3ncsc23)c1F` [Example 19, 5-chloro-N-[3-fluoro-4-(2-{[1,3]thiazolo[4,5-c]pyridin-7-yl}ethynyl)pyridin-2-yl]-2-methoxypyridine-3-sulfonamide] are 12 nM, 384 nM, 3.8 nM, 5.9 nM and 103 µg/mL.
Consider `COc1ncc(Cl)cc1S(=O)(=O)Nc1nccc(C#Cc2cncc3c2cnn3C)c1F` [Example 20, 5-chloro-N-[3-fluoro-4-(2-{1-methyl-1H-pyrazolo[3,4-c]pyridin-4-yl}ethynyl)pyridin-2-yl]-2-methoxypyridine-3-sulfonamide], for which the results for the half-inhibitory concentration (IC50) in data set [1] (setting [3]) and in data set [1] (setting [4]) were 14.5 nM and 324 nM, respectively. Also, the Ki in data set [1] (setting [5]) is 4.6 nM; in data set [1] (setting [6]) it was 4.9 nM. In addition, the solubility (kinetic) at 90 min in data set [2] is 70.6 µg/mL.
As to `COc1ncc(Cl)cc1S(=O)(=O)Nc1nccc(C#Cc2cncc3[nH]ncc23)c1F` [Example 21, 5-chloro-N-[3-fluoro-4-(2-{1H-pyrazolo[3,4-c]pyridin-4-yl}ethynyl)pyridin-2-yl]-2-methoxypyridine-3-sulfonamide], in data set [1] (setting [4]), the IC50 is 158 nM. In addition, the inhibition constant (Ki) in data set [1] (setting [6]) came to 2.4 nM. The kinetic solubility at 90 min in data set [2] came out at 221 µg/mL.
The corresponding values for `COc1ncc(Cl)cc1S(=O)(=O)Nc1nccc(C#Cc2cncc3nn(C)cc23)c1F` [Example 22, 5-chloro-N-[3-fluoro-4-(2-{2-methyl-2H-pyrazolo[3,4-c]pyridin-4-yl}ethynyl)pyridin-2-yl]-2-methoxypyridine-3-sulfonamide] are 98.6 nM, 1.5 nM and 229 µg/mL.
For `COc1ncc(Cl)cc1S(=O)(=O)Nc1nccc(C#Cc2cncc3cnn(C)c23)c1F` [Example 24, 5-chloro-N-[3-fluoro-4-(2-{1-methyl-1H-pyrazolo[4,3-c]pyridin-7-yl}ethynyl)pyridin-2-yl]-2-methoxypyridine-3-sulfonamide] the same measures were 169 nM, 2.6 nM and 80.3 µg/mL.
The corresponding values for `CNc1ncc(C#Cc2ccnc(NS(=O)(=O)c3cc(Cl)cnc3OC)c2F)cn1` [Example 25, 5-chloro-N-(3-fluoro-4-{2-[2-(methylamino)pyrimidin-5-yl]ethynyl}pyridin-2-yl)-2-methoxypyridine-3-sulfonamide] are 110 nM, 1.7 nM and 208 µg/mL.
As to `COc1ncc(Cl)cc1S(=O)(=O)Nc1nccc(C#Cc2cnc3cnccn23)c1F` [Example 26, 5-chloro-N-[3-fluoro-4-(2-{imidazo[1,2-a]pyrazin-3-yl}ethynyl)pyridin-2-yl]-2-methoxypyridine-3-sulfonamide], in data set [1] (setting [4]), the half-inhibitory concentration (IC50) was found to be 556 nM. Moreover, in data set [1] (setting [6]), the inhibition constant (Ki) stood at 8.5 nM. For the same molecule, the solubility (kinetic) at 90 min in data set [2] amounted to 241 µg/mL.
Take `COc1ncc(Cl)cc1S(=O)(=O)Nc1nccc(C#Cc2cnc3[nH]ncc3n2)c1F` [Example 27, 5-chloro-N-[3-fluoro-4-(2-{1H-pyrazolo[3,4-b]pyrazin-5-yl}ethynyl)pyridin-2-yl]-2-methoxypyridine-3-sulfonamide]: the IC50 in data set [1] (setting [4]) is 225 nM. Further, the Ki in data set [1] (setting [6]) is 3.4 nM. Also, the solubility (kinetic) at 90 min in data set [2] stood at 225 µg/mL.
The corresponding values for `COc1ncc(Cl)cc1S(=O)(=O)Nc1nccc(C#Cc2cnc3[nH]c(=O)[nH]c3n2)c1F` [Example 28, 5-chloro-N-[3-fluoro-4-(2-{2-oxo-1H,2H,3H-imidazo[4,5-b]pyrazin-5-yl}ethynyl)pyridin-2-yl]-2-methoxypyridine-3-sulfonamide] are 174 nM, 2.7 nM and 231 µg/mL.
In the case of `COc1ncc(Cl)cc1S(=O)(=O)Nc1nccc(C#Cc2cnc3[nH]cnc3c2)c1F` [Example 29, 5-chloro-N-[3-fluoro-4-(2-{3H-imidazo[4,5-b]pyridin-6-yl}ethynyl)pyridin-2-yl]-2-methoxypyridine-3-sulfonamide], the 50% inhibitory concentration (IC50) in data set [1] (setting [4]) worked out at 654 nM. Moreover, the Ki in data set [1] (setting [6]) stood at 10 nM. Further, in data set [2], the kinetic solubility at 90 min is 231 µg/mL.
Take `COc1ncc(Cl)cc1S(=O)(=O)Nc1nccc(C#Cc2cnc3ccnn3c2)c1F` [Example 30, 5-chloro-N-[3-fluoro-4-(2-{pyrazolo[1,5-a]pyrimidin-6-yl}ethynyl)pyridin-2-yl]-2-methoxypyridine-3-sulfonamide]: the IC50 in data set [1] (setting [4]) worked out at 160 nM. For the same molecule, the Ki in data set [1] (setting [6]) was 2.4 nM. Moreover, in data set [2], the solubility (kinetic) at 90 min is over 245 µg/mL.
The corresponding values for `COc1ncc(Cl)cc1S(=O)(=O)Nc1nccc(C#Cc2cnn3cccnc23)c1F` [Example 31, 5-chloro-N-[3-fluoro-4-(2-{pyrazolo[1,5-a]pyrimidin-3-yl}ethynyl)pyridin-2-yl]-2-methoxypyridine-3-sulfonamide] are 98.9 nM, 1.5 nM and over 243 µg/mL.
`COc1ncc(Cl)cc1S(=O)(=O)Nc1nccc(C#Cc2cnc3[nH]c(=O)[nH]c3c2)c1F` [Example 32, 5-chloro-N-[3-fluoro-4-(2-{2-oxo-1H,2H,3H-imidazo[4,5-b]pyridin-6-yl}ethynyl)pyridin-2-yl]-2-methoxypyridine-3-sulfonamide]: in data set [1] (setting [4]), the half-inhibitory concentration (IC50) is 48.1 nM. Further, the inhibitory constant (Ki) in data set [1] (setting [6]) amounted to 0.7 nM. Further, the solubility (kinetic) at 90 min in data set [2] amounted to 40.1 µg/mL.
For the molecule `COc1ncc(Cl)cc1S(=O)(=O)Nc1nccc(C#Cc2cnc3[nH]nc(C)c3c2)c1F` [Example 33, 5-chloro-N-[3-fluoro-4-(2-{3-methyl-1H-pyrazolo[3,4-b]pyridin-5-yl}ethynyl)pyridin-2-yl]-2-methoxypyridine-3-sulfonamide], the IC50 in data set [1] (setting [3]) came out at 4.2 nM; in data set [1] (setting [4]), 21.7 nM. Moreover, the Ki worked out at 1.3 nM in data set [1] (setting [5]) and 0.3 nM in data set [1] (setting [6]). Further, in data set [2], the solubility (kinetic) at 90 min was 245 µg/mL.
As to `COc1ncc(Cl)cc1S(=O)(=O)Nc1nccc(C#Cc2cnc(N)nc2C)c1F` [Example 34, N-{4-[2-(2-amino-4-methylpyrimidin-5-yl)ethynyl]-3-fluoropyridin-2-yl}-5-chloro-2-methoxypyridine-3-sulfonamide], in data set [1] (setting [4]), the half-maximal inhibitory concentration (IC50) was found to be 658 nM. Also, the inhibition constant Ki in data set [1] (setting [6]) was 10 nM. Besides, in data set [2], the solubility (kinetic) at 90 min was 238 µg/mL.
